PMC8443696, “Structural determinants and regulation of spontaneous activity in GABAA receptors” (Nature Communications, 2021)
“And” between values parts separate entries of the source, which are not always exact repeats. Equal values may be shown once.

Experiments:
Assay type in all cases: cell-based, mouse
[1] = tested on: T1, α4β3δ GABAARs; experiment: Single-channel recording of spontaneous currents, outside-out patches of HEK cells; conditions: 100 nM THDOC, absence of GABA, individual patches
T1 construct: expressed in transfected cells; host or cells: HEK cells (outside-out patches)
Method: To limit ion channel density in individual patches, HEK cells were transfected with 5 ng α4, β3, δ and eGFP cDNAs. Resulting spontaneous single-channel currents were digitised at a sampling rate of 20 kHz and filtered at 5 kHz with a 4-pole Bessel filter (24 dB per octave). A fixed time resolution of 80 μs was used as a preset. Recordings were undertaken using thick-walled borosilicate patch pipettes (6–10 MΩ) filled with a solution containing (mM): 145 CsCl, 2.5 NaCl, 10 HEPES, 1 EGTA, 4 MgATP, pH 7.3. Osmolarity was 300 ± 20 mOsm/L. Cells were perfused with an external solution consisting of (mM): 145 NaCl, 2.5 KCl, 1 CaCl2, 1 MgCl2, 10 HEPES, 10 glucose, pH 7.3. Prior control recordings were obtained using untransfected HEK cells to identify endogenous channel currents.
Channel currents were digitally low pass filtered at 1–2 kHz prior to analysis. […] Channel dwell states were identified using a threshold cursor method. This state transition detection method for open and shut events was used to assemble an idealised record of the digitised data. Open times affected by channel stacking were not included in the analyses and sub-conductance states were also rare and excluded from the analysis.
The analysis of the dwell times for single-channel currents was performed by fitting a mixture of exponential components to the open time distributions. These defined the mean open times and their relative proportions (area of the components) based on using a Levenberg-Marquardt non-linear least-squares routine (WinEDR ver 3.8.7, courtesy of J Dempster, University of Strathclyde).

[2] = tested on: T2, α4β2δ receptor; experiment: Quantification of spontaneous activity (Ispont) in HEK cells, whole-cell patch clamp
T2 construct: expressed in transfected cells; host or cells: HEK 293
Excerpt: (§1) All components were obtained from Life Technologies.
(§2) Currents were acquired with Clampex ver.
(§3) Cells were voltage clamped at −40 mV.
(§4) For assessment of the efficacy of allosteric modulators on spontaneous activity, compounds were briefly applied (3–5 s) to achieve steady-state currents (IMod). […] The IMod was summed with IPTX (or subtracted for inhibitory modulators) and the Ispont calculated, as described by Eq. (2):2 Ispont(%)=[(IPTX+IMod)/(IPTX+IMax)]×100……………………………………

[3] = target: T3, α4β3δ receptors (UniProt P18506+P63080+Q9D6F4); conditions: THIP 3 mM
T3 construct: expressed in transfected cells; host or cells: HEK 293
Excerpt: as §1, §2, §3, §4

[4] = tested on: T4, α1β3γ2L receptors; experiment: Quantification of spontaneous activity (Ispont) in HEK cells, whole-cell patch clamp; conditions: α1β3γ2L THIP (Fig. 1d); THIP 3 mM, PTX 100 µM; individual cells
T4 construct: expressed in transfected cells; host or cells: HEK 293
Excerpt: as §1, §2, §3, §4

T3 sequence (Q9D6F4 36-552): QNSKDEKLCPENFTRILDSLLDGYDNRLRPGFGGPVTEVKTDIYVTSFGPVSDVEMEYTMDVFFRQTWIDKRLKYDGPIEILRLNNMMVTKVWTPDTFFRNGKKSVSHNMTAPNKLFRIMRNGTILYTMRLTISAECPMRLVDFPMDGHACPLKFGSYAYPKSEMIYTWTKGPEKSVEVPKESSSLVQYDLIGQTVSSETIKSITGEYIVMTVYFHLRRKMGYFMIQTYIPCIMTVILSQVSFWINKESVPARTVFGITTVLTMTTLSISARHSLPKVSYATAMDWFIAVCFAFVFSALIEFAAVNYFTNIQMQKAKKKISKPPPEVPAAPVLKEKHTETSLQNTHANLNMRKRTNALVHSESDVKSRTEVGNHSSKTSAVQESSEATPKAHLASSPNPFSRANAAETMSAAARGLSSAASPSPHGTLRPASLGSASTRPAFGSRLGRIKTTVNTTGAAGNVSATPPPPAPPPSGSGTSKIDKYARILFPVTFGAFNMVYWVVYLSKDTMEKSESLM
T3 sequence (P63080 26-473): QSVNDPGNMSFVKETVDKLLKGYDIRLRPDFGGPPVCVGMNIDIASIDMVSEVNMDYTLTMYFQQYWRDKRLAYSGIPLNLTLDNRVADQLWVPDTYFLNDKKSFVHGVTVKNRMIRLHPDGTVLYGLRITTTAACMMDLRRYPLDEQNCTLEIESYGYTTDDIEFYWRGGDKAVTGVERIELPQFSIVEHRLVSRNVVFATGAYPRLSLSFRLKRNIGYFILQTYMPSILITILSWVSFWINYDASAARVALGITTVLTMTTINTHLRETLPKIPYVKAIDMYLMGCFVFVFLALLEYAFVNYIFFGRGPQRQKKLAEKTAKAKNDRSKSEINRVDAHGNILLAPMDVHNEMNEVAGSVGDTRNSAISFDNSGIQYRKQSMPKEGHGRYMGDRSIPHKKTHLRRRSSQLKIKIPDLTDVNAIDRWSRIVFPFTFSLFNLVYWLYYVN
T3 sequence (P18506 25-449): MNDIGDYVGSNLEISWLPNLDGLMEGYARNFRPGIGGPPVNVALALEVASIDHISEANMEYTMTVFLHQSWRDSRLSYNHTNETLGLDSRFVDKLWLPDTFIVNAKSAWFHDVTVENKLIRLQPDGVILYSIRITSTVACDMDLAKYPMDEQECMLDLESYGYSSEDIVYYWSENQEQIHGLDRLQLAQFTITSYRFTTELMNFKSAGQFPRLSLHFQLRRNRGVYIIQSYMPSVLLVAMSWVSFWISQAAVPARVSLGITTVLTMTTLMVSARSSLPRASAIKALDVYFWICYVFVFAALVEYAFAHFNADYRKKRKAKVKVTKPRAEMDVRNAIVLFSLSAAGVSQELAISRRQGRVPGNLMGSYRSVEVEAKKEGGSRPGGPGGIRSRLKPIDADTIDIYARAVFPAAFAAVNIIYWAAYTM

Which “Area A1 of open time distribution (row head printed 'thdoc t2', r12)” value [1] does the source give for `C[C@]12CC[C@@H](O)C[C@H]1CC[C@@H]1[C@@H]2CC[C@]2(C)[C@@H](C(=O)CO)CC[C@@H]12` [THDOC, tetrahydro-deoxycorticosterone] here?
Its value is “did not significantly affect”.

What about the “Area A2 of open time distribution (thdoc t2, r14)” value [1] of the same compound?
The value was “did not significantly affect”.

And the “Area A1 of open time distribution (row head printed 'thdoc t2', r12)” value ([1]; listed as thdoc)?
Its value is 7.49E+01 and 60.19 and 6.51E+01 and 8.65E+01 and 4.84E+01 and 64.73 and 86.6 and 77.97 and 79.7 and 73.6.

And the “Area A2 of open time distribution (thdoc t2, r14)” value ([1]; listed as thdoc)?
The value was 25.1 and 39.81 and 34.92 and 13.51 and 51.6 and 35.27 and 13.4 and 22.03 and 20.3 and 26.4.

What about the “Ispont in the presence of modulator” value ([2]; THDOC 100 nM (Fig. 6b)) of the same compound?
The value was 0% and 0.09895% and 0.3365%.

How did the “Ispont, IMax from THIP” value ([3]; α4β3δ THIP (Fig. 1d), PTX 100 µM, individual cells) turn out when `Oc1noc2c1CCNC2` [THIP, 4,5,6,7-tetrahydroisoxazolo[5,4-c]pyridin-3-ol] was run?
The value was 3.988% and 7.572% and 10.0793% and 6.822% and 17.8571% and 28.6432% and 15.8524%.

What about the “IMax compared to GABA” value ([3]; α4β3δ) of the same compound?
The value was “larger”.

What about the “Ispont, IMax from THIP” value [4] of the same compound?
The value was 1.055% and 0.4509% and 8.753% and 3.449% and 0.8828% and 1.773%.

`CC(=O)[C@H]1CC[C@H]2[C@@H]3CC[C@H]4C[C@H](O)CC[C@]4(C)[C@H]3CC[C@]12C` [allopregnanolone] was tested. Which “Ispont in the presence of modulator” value ([2]; AP 100 nM (Fig. 6b), listed as AP) did it give?
Its value is 0% and 0.09895% and 0.3946%.
